The values that follow come from publication PMC6627486, “Ipomoeassin F Binds Sec61α to Inhibit Protein Translocation” (Journal of the American Chemical Society, 2019).

Read-outs that look alike come from different tables or passages of the source.

One assay has as its system MDA-MB-231. Description: AlamarBlue cytotoxicity assay, MDA-MB-231. It is filed as cell-based, human. To be noted: Homo sapiens, MDA-MB-231, 72 h, read-out: Cytotoxicity (IC50). As to the method:
AlamarBlue Cytotoxicity Assay
MDA-MB-231, MCF-10A and HCT116. Viable cells were counted with a hemocytometer immediately before each experiment . Experiments were done in triplicate. First, 100 μL of MDA-MB-231 cells or MCF-10A cells at the density of 50,000 cells/mL was seeded in a 96-well plate (5,000 cells/well) and then incubated at 37 °C and 5% CO2 for 24 h. The compounds were dissolved in DMSO (dimethyl sulfoxide) to make drug stocks (10 mM). The stock solutions were diluted with the complete DMEM high glucose culture medium to make a series of gradient fresh working solutions right before each test. Subsequently, the cells were treated with 100 μL of the freshly made gradient working solution in a total volume of 200 μL/well for 72 h. After that, the media were discarded and 200 μL of the fresh complete medium containing 10% of AlamarBlue (resazurin) stock solution was added to each well. The plate was then incubated at 37 °C and 5% CO2 for another 3 h. Emission of each well at 620 nm was detected by a microplate reader (BioTek Synergy H1) at excitation 580 nm. […]
Microplate Reader. The percentage of viability compared to the negative control (DMSO-treated cells) […]
was determined. […]
Background: Resazurin is reduced to fluorescent resorufin, in cell work by metabolically active cells.

The target of the next assay is T1, Sec61α (Homo sapiens, UniProt P61619).
T1 construct: enabling a biotin analogue of ipomoeassin F to pull down Sec61α from live cells; endogenous in cells; host or cells: MDA-MB-231
Description: Live cell-based biotin affinity pulldown in MDA-MB-231 cells. The class given is binding. To be noted: live MDA-MB-231 cells. The protocol: Activity Based Protein Profiling
MDA-MB-231 cells were seeded in five groups of 6 cm petri dishes with 3 ml DMEM high glucose culture and incubated at 37 °C and 5% CO2 until 90% confluency. […]
After 1 h incubation at 37 °C […]
and 5% CO2, the cells were harvested by scraping and washed with cold PBS for 3 times. The cells were then lysed in 100 µl of lysis buffer 1 (50 mM Hepes, pH 9.0, 100 mM NaCl, 10% glycerol, 5 mM MgCl2, 1 mM CaCl2, 0.2% NP40, 1x protease inhibitor) using ultrasound sonication. The supernatant of each group was collected after centrifugation at 21,100 g and 4 °C for 10 min, and the protein concentration was quantified with a BCA kit. 10% SDS was then added into protein solution to make a final SDS concentration of 0.4%, and the solution was incubated at 95 °C for 5 min. […]
According to the experimental needs, MDA-MB-231 cells were seeded into 3-7 groups of 15-cm tissue-culture dishes and incubated at 37 °C and 5% CO2 until 90% confluency. […] The supernatant of each group was collected after centrifugation at 4 °C and 21,100 g for 10 min, and the protein concentration was quantified with the BCA kit. […]
rotation. […] The other part was analyzed by Western blotting, in which proteins on the nitrocellulose membrane were visualized by either fluorescently labeled streptavidin or an anti-Sec61α antibody. […]

T1 sequence (P60468 whole entry): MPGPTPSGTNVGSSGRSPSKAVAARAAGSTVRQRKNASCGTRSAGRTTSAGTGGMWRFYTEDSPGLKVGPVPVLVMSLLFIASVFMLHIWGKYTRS
T1 sequence (P60059 whole entry, further chain): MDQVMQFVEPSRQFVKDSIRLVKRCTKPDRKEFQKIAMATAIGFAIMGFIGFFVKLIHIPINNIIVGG
T1 sequence (P61619 whole entry): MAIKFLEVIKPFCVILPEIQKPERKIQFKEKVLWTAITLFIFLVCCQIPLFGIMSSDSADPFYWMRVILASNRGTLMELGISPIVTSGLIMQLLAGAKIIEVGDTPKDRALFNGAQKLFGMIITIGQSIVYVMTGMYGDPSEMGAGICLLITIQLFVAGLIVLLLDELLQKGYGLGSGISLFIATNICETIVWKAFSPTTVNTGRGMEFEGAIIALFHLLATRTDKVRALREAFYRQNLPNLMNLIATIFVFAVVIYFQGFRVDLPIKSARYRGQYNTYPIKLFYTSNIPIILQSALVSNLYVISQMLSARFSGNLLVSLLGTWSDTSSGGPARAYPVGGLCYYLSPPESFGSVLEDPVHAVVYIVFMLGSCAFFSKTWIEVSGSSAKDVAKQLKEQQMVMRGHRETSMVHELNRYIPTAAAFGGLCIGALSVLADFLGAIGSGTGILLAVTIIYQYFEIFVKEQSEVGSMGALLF

A word on the IC50: it is the midpoint of a concentration-inhibition curve. Take `C/C=C(\C)C(=O)O[C@H]1[C@H](OC(=O)/C=C/c2ccc(OCc3cn(CCOCCOCCOCCNC(=O)CCCC[C@@H]4SC[C@@H]5NC(=O)N[C@@H]54)nn3)cc2)[C@@H](O)[C@@H]2O[C@H]3[C@H](O[C@@H](CCCCC)CCCCCCC(=O)CCC(=O)OC[C@H]1O2)O[C@H](C)[C@H](OC(C)=O)[C@@H]3O` [compound 5]: the IC50 in the assay on MDA-MB-231 (AlamarBlue) is 29.5 nM. In addition, the “recovery of ∼40 kDa protein (Sec61α) by biotin probe in streptavidin pulldown” value on Sec61α (9 at 500 nM) is “no proteins were selectively enriched”.

As to `C/C=C(\C)C(=O)O[C@@H]1[C@@H](O)[C@@H]2O[C@H]3[C@H](O[C@@H](CCCCC)CCCCCCC(=O)CCC(=O)OC[C@@H](O2)[C@H]1OC(=O)/C=C/c1ccccc1)O[C@H](C)[C@H](OC(C)=O)[C@@H]3O` [ipomoeassin F], in the assay on MDA-MB-231, the half-inhibitory concentration (IC50) came to 6.3 nM. Besides, the “competition with probe 7 in pulldown of ∼40 kDa protein” value at Sec61α (10 nM 7 + 50 nM ipomoeassin F, 20 nM 7 + 1 μM 8) is listed as “outcompeted by a 5-fold excess”.
